The results in this text go back to US20220144815A1, “1,3,4-OXADIAZOLES AND THEIR DERIVATIVES AS NEW ANTIFUNGAL AGENTS” (Bayer Aktiengesellschaft, priority 2018, published 2022).

Like-named read-outs stand apart in the source and are kept apart here.

As usually defined, the inhibition of growth is the share of the control response that was lost under treatment. The inhibition is how much of the control response was suppressed.

The nature of data set [1]: Log P by HPLC on reversed phase columns, method [a] (EEC directive 79/831 Annex V.A8). In kind it is physicochemical. Conditions: reversed phase HPLC column. Put shortly:
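Reversed-phase HPLC with LC-UV detection per EEC directive 79/831 Annex V.A8, acidic eluent of 0.1% formic acid in water and acetonitrile, linear gradient 10% to 95% acetonitrile. Log P derived from retention times, calibrated against straight-chain alkan-2-ones (C3–C16) by linear interpolation.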

Data set [2] deals with Colletotrichum lindemuthianum. In words: Example B: in vitro cell test, spore germination and mycelium growth in liquid culture. In kind it is cell-based. Conditions: 144 h, 20 ppm of tested compound, 6 days incubation, read-out: efficacy (inhibition of fungal growth). Put shortly: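 Compounds in DMSO (final ≤1%) added to glucose/peptone/yeast extract liquid medium containing C. lindemuthianum spores. After 6 days incubation, mycelium growth measured spectrometrically; inhibition calculated from absorbance versus compound-free control wells.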

The test system of the next data set is Botrytis cinerea. The data set can be described thus: Example C: in vivo preventive test (grey mould) on gherkin or cabbage. Conditions: 500 ppm of active ingredient, preventive spray, evaluated 4 to 5 days after inoculation, read-out: efficacy. The method, then: Solvent: 5% by volume of dimethyl sulfoxide • 10% by volume of acetone Emulsifier: 1 μl of Tween® 80 per mg of active ingredient The tested compounds were made soluble and homogenized in a mixture of dimethyl sulfoxide/acetone/Tween® 80 and then diluted in water to the desired concentration. The young plants of gherkin or cabbage were treated by spraying the tested compound prepared as described above. Control plants were treated only with an aqueous solution of acetone/dimethyl sulfoxide/Tween® 80. After 24 hours, the plants were contaminated by spraying the leaves with an aqueous suspension of Botrytis cinerea spores. The contaminated gherkin plants were incubated for 4 to 5 days at 17° C. and at 90% relative humidity. The contaminated cabbage plants were incubated for 4 to 5 days at 20° C. and at 100% relative humidity. The test was evaluated 4 to 5 days after the inoculation. 0% means an efficacy which corresponds to that of the control plants while an efficacy of 100% means that no disease was observed.

The next data set concerns Puccinia recondita. The data set can be described thus: Example D: in vivo preventive test (brown rust on wheat). Particulars: 264 h, 500 ppm of tested compound, preventive spray, evaluated 11 days after inoculation, read-out: efficacy. On the procedure:
Solvent: 5% by volume of dimethyl sulfoxide • 10% by volume of acetone Emulsifier: 1 μL of Tween® 80 per mg of active ingredient The tested compounds were made soluble and homogenized in a mixture of dimethyl sulfoxide/acetone/Tween® 80 and then diluted in water to the desired concentration. The young plants of wheat were treated by spraying the tested compound prepared as described above. Control plants were treated only with an aqueous solution of acetone/dimethyl sulfoxide/Tween® 80. After 24 hours, the plants were contaminated by spraying the leaves with an aqueous suspension of Puccinia recondita spores. The contaminated wheat plants were incubated for 24 hours at 20° C. and at 100% relative humidity and then for 10 days at 20° C. and at 70-80% relative humidity. The test was evaluated 11 days after the inoculation. 0% means an efficacy which corresponds to that of the control plants while an efficacy of 100% means that no disease was observed.

A further data set relates to Phakopsora pachyrhizi. The data set can be described thus: Example F: in vivo preventive test (soybeans), DMSO/acetone/Tween 80. Particulars: 288 h, 500 ppm of tested compound, preventive spray, soybean, evaluated 12 days after inoculation, read-out: efficacy. The method in brief:
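Compounds in DMSO/acetone/Tween 80, diluted in water, were sprayed preventively onto young plants, which were spore-inoculated 24 h later. Plants were held 24 h at 24 °C and 100% RH, then 11 days at 24 °C and 70–80% RH. Scored 12 days post-inoculation: 0% = control-level disease, 100% = no disease.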

The next data set deals with Alternaria brassicae. In words: Example E: in vivo preventive test (cabbage). Conditions: 144 h, 500 ppm of tested compound, preventive spray, evaluated 6 days after inoculation, read-out: efficacy. Put shortly: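 Young cabbage plants sprayed with compound in DMSO/acetone/Tween 80 diluted in water, then inoculated 24 hours later with Alternaria brassicae spore suspension. Kept 6 days at 20° C., 100% relative humidity. Efficacy scored 6 days post-inoculation: 0% as solvent-treated controls, 100% no disease.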

Another data set concerns Phakosporra pachirrhizi. In words: Example A: fungicidal activity, spore germination in 96-well plates. In kind it is cell-based. Conditions: 4 hours at 21° C., read-out: efficacy (inhibition of the fungal germination); for inhibition at 30 ppm: 30 ppm of active ingredient; for inhibition at 20 ppm: 20 ppm of active ingredient. The method, then: Cryo-conserved wild-type spores of the biotroph Phakosporra pachirrhizi were humidified in dedicated chamber overnight at 18° C. in the dark. The next day, a solution of spores at 7×10^3 sp/mL was prepared in a water based growth medium (H2O+0.2 mM MOPS at pH 7+0.01% Tween 20) and spores were distributed in a 96-MTPS (final volume of 200 μL per well) thanks to a dispenser robot. Each molecule was tested at 10 doses (from 30 to 0.002 ppm final concentration) and accordingly 1.2 μL of each dilution was transferred in dedicated well to end-up with a final concentration of 0.6% DMSO. Wild-type spores and molecules were incubated for 4 hours at 21° C., and 6 images par well were then acquired with Transmitted Light images (Image Xpress Micro microscope, Molecular Devices, Objective 10×, 6 images per well). Detection and quantification of the number of germinated spores per image was performed with a dedicated in-house developed algorithm (MetaXpress software, Molecular Devices).

The mark [3] stands for this setting: log P determined according to method [a] (HPLC on reversed phase columns), read-out: logP.
[4] abbreviates: method [a], HPLC on reversed phase columns, read-out: logP.
The mark [5] stands for this setting: Method A: LC-UV, acidic range, 0.1% formic acid in water and acetonitrile, read-out: Log P.

As to `CC(Sc1ncc(-c2nnc(C(F)F)o2)cn1)c1ccccc1` (racemic) [I.123, 5-[5-(difluoromethyl)-1,3,4-oxadiazol-2-yl]-2-{[(1RS)-1-phenylethyl]sulfanyl}pyrimidine], the chromatographic logP in data set [1] (setting [3]) came out at 3.72. Besides, in data set [2], the inhibition of growth at 20 µg/mL was in the range of 90 to 100%. Also, the pest or weed control at 500 ppm in the data set with Botrytis cinerea fell in the range of 90 to 100%.
As to `Fc1ccc(C(Nc2ncc(-c3nnc(C(F)F)o3)cn2)C(F)(F)F)cc1` (racemic) [I.181, 5-[5-(difluoromethyl)-1,3,4-oxadiazol-2-yl]-N-[(1RS)-2,2,2-trifluoro-1-(4-fluorophenyl)ethyl]pyrimidin-2-amine], the chromatographic logP in data set [1] (setting [4]) amounted to 3.22. Further, the inhibition of growth at 20 µg/mL in data set [2] fell in the range of 80 to 89%. For the same compound, the pest or weed control at 500 ppm in the data set with Botrytis cinerea was in the range of 70 to 79%. The pest or weed control at 500 µg/mL with Puccinia recondita and with Phakopsora pachyrhizi was 90 to 100% in each case.
As for `FC(F)c1nnc(-c2cnc(N[C@@H]3C[C@H]3c3ccccc3)nc2)o1` (racemic) [I.196, 5-[5-(difluoromethyl)-1,3,4-oxadiazol-2-yl]-N-[rac-(1R,2S)-2-phenylcyclopropyl]pyrimidin-2-amine], in data set [1] (setting [4]), the chromatographic logP stood at 2.94. Further, in data set [2], the inhibition of growth at 20 µg/mL lay in the range of 70 to 79%. Besides, the pest or weed control at 500 ppm in the data set with Botrytis cinerea was in the range of 90 to 100%. The pest or weed control at 500 µg/mL in the data set with Alternaria brassicae and in the data set on Phakopsora pachyrhizi was 90 to 100% each time.
Take `O=C(O)c1ccc(-c2nnc(C(F)(F)F)o2)cc1` [I.004, 4-[5-(trifluoromethyl)-1,3,4-oxadiazol-2-yl]benzoic acid]: the inhibition at 30 ppm in the data set with Phakosporra pachirrhizi was not below 70%.
In the case of `O=C(O)c1ccc(-c2nnc(C(F)(F)F)s2)cc1` [I.008, 4-[5-(trifluoromethyl)-1,3,4-thiadiazol-2-yl]benzoic acid], the chromatographic logP in data set [1] (setting [5]) came to 1.41. In the data set with Phakosporra pachirrhizi, the inhibition at 20 ppm was not below 70%.
With `CCc1noc(-c2ccc(-c3nnc(C(F)(F)F)o3)cc2)n1` [I.018, 3-ethyl-5-{4-[5-(trifluoromethyl)-1,3,4-oxadiazol-2-yl]phenyl}-1,2,4-oxadiazole], the chromatographic logP in data set [1] (setting [5]) came out at 3.59. Also, the inhibition at 30 ppm in the data set on Phakosporra pachirrhizi was not below 70%.
As for `O=C(Nc1ccc(F)cc1F)c1ccc(-c2nnc(C(F)F)o2)cc1` [I.027, 4-[5-(difluoromethyl)-1,3,4-oxadiazol-2-yl]-N-(2,4-difluorophenyl)benzamide], the inhibition at 4 ppm in the data set on Phakosporra pachirrhizi (4 ppm of active ingredient) is not below 70%.
For the compound `CC1(C(=O)Nc2ccc(-c3nnc(C(F)F)o3)cn2)CC1` [I.045, N-{5-[5-(difluoromethyl)-1,3,4-oxadiazol-2-yl]pyridin-2-yl}-1-methylcyclopropanecarboxamide], the pest or weed control at 500 ppm with Botrytis cinerea is 90 to 100%. Also, the pest or weed control at 500 µg/mL in the data set with Alternaria brassicae fell in the range of 90 to 100%.
Regarding `FC(F)c1nnc(-c2cnc(Nc3ccccc3)nc2)o1` [I.076, 5-[5-(difluoromethyl)-1,3,4-oxadiazol-2-yl]-N-phenylpyrimidin-2-amine], the pest or weed control at 500 ppm in the data set with Botrytis cinerea fell in the range of 90 to 100%. For the same compound, the pest or weed control at 500 µg/mL with Alternaria brassicae fell in the range of 90 to 100%.
Regarding `Fc1ccc(-c2ncc(-c3nnc(C(F)F)o3)cn2)cc1` [I.077, 5-[5-(difluoromethyl)-1,3,4-oxadiazol-2-yl]-2-(4-fluorophenyl)pyrimidine], the inhibition of growth at 20 µg/mL in data set [2] was 90 to 100%. Moreover, the pest or weed control at 500 ppm with Botrytis cinerea was 70 to 79%.
As to `Fc1ccccc1Nc1ncc(-c2nnc(C(F)F)s2)cn1` [I.113, 5-[5-(difluoromethyl)-1,3,4-thiadiazol-2-yl]-N-(2-fluorophenyl)pyrimidin-2-amine], the chromatographic logP in data set [1] (setting [3]) is 2.77. Further, in the data set on Botrytis cinerea, the pest or weed control at 500 ppm is 90 to 100%. The pest or weed control at 500 µg/mL in the data set on Alternaria brassicae was in the range of 90 to 100%.
For `FC(F)c1nnc(-c2cnc(NC3(c4ccccc4)CCC3)nc2)o1` [I.134, 5-[5-(difluoromethyl)-1,3,4-oxadiazol-2-yl]-N-(1-phenylcyclobutyl)pyrimidin-2-amine], the chromatographic logP in data set [1] (setting [5]) was 3.18. In addition, the inhibition at 20 ppm with Phakosporra pachirrhizi was not below 70%. Also, the inhibition of growth at 20 µg/mL in data set [2] was in the range of 90 to 100%. In addition, the pest or weed control at 500 µg/mL lay within 70 to 79% in the data set on Puccinia recondita and 90 to 100% in the data set on Phakopsora pachyrhizi.
For the compound `FC(F)c1nnc(-c2cnc(NCC3(c4ccccc4)CC3)nc2)o1` [I.135, 5-[5-(difluoromethyl)-1,3,4-oxadiazol-2-yl]-N-[(1-phenylcyclopropyl)methyl]pyrimidin-2-amine], in data set [1] (setting [3]), the chromatographic logP is 3.25. Moreover, the inhibition of growth at 20 µg/mL in data set [2] lay within 80 to 89%. Further, the pest or weed control at 500 ppm in the data set on Botrytis cinerea was 70 to 79%. In the data set with Alternaria brassicae, the pest or weed control at 500 µg/mL was 90 to 100%.
Regarding `Fc1ccccc1C1(Nc2ncc(-c3nnc(C(F)F)o3)cn2)CC1` [I.144, 5-[5-(difluoromethyl)-1,3,4-oxadiazol-2-yl]-N-[1-(2-fluorophenyl)cyclopropyl]pyrimidin-2-amine], in data set [1] (setting [3]), the chromatographic logP was 2.85. In the data set with Phakosporra pachirrhizi, the inhibition at 20 ppm was not below 70%. Moreover, in data set [2], the inhibition of growth at 20 µg/mL was in the range of 90 to 100%. Further, the pest or weed control at 500 µg/mL in the data set on Puccinia recondita and in the data set on Phakopsora pachyrhizi was 90 to 100% each time.
In the case of `Fc1ccc(C2(Nc3ncc(-c4nnc(C(F)F)o4)cn3)CC2)cc1` [I.146, 5-[5-(difluoromethyl)-1,3,4-oxadiazol-2-yl]-N-[1-(4-fluorophenyl)cyclopropyl]pyrimidin-2-amine], the chromatographic logP in data set [1] (setting [3]) turned out to be 2.75. For the same compound, the inhibition of growth at 20 µg/mL in data set [2] fell in the range of 70 to 79%. For the same compound, in the data set with Botrytis cinerea, the pest or weed control at 500 ppm was in the range of 90 to 100%. Further, the pest or weed control at 500 µg/mL in the data set with Puccinia recondita, in the data set on Alternaria brassicae and in the data set with Phakopsora pachyrhizi was 90 to 100% each time.
On to `FC(F)(F)c1nnc(-c2cnc(NC3(c4ccccc4)CCC3)nc2)o1` [I.160, N-(1-phenylcyclobutyl)-5-[5-(trifluoromethyl)-1,3,4-oxadiazol-2-yl]pyrimidin-2-amine], for which, in data set [1] (setting [3]), the chromatographic logP was determined as 3.84. For the same compound, in the data set with Phakosporra pachirrhizi, the inhibition at 20 ppm was not below 70%. Moreover, in data set [2], the inhibition of growth at 20 µg/mL lay in the range of 80 to 89%. Besides, the pest or weed control at 500 µg/mL in the data set on Phakopsora pachyrhizi lay within 90 to 100%.
Take `COc1ccccc1CN(OC)c1ncc(-c2nnc(C(F)F)o2)cn1` [I.161, N-{5-[5-(difluoromethyl)-1,3,4-oxadiazol-2-yl]pyrimidin-2-yl}-N-(2-methoxybenzyl)-O-methylhydroxylamine]: in data set [1] (setting [3]), the chromatographic logP is 2.97. Also, the pest or weed control at 500 ppm with Botrytis cinerea is 70 to 79%.
For `FC(F)c1nnc(-c2cnc(NC3(C4(c5ccccc5)CC4)CC3)nc2)o1` [I.170, 5-[5-(difluoromethyl)-1,3,4-oxadiazol-2-yl]-N-[1′-phenyl[1,1′-bi(cyclopropyl)]-1-yl]pyrimidin-2-amine], the chromatographic logP in data set [1] (setting [4]) amounted to 3.64. Also, the pest or weed control at 500 ppm with Botrytis cinerea is 70 to 79%. Besides, in the data set with Alternaria brassicae, the pest or weed control at 500 µg/mL was 90 to 100%.
